Converted amounts (≈) assume the structure as drawn.

The test system of one series is fish. The series can be described thus: Fish toxicity (LC50 fish). The settings on record: in vivo. The text has this: (§1) Materials for use in the invention include organosilanes, for example organosilane hydrides, organosilane alkoxides and organosilane amines. Organosilane compounds have the advantage that they are typically oil-soluble and react with water. […] Organosilanes for use in the invention preferably have a biodegradability of at least 60%. Whilst not wishing to be bound by theory, it is believed that organosilane compounds react with water and hydrolyse. The resulting chemicals then react with siliceous surfaces in the formation (e.g. the surface of silica sand), coat any sand particles, bind them in place by the formation of bridges and restrict their movement. The advantage of bifunctional organosilanes is their ability to bind two particles together.

Series [1] is described as follows: Biodegradability according to OECD 306. The settings on record: as tested according to OECD 306.
Source text: as §1

The next series has as its system algae. Put plainly: Algae toxicity (IC50 algae). It is filed as cell-based.
Source text: as §1

The test system of another series is daphnia. Put plainly: Daphnia toxicity (EC50 daphnia). The settings on record: in vivo.
Source text: as §1

In the series with fish, `CCO[Si](CCCN)(OCC)OCC` [DYNASYLAN AMEO, 3-amino-propyltriethoxysilane] registered an LC50 fish of 934 mg/L (≈ 4220 µM). The compound also came in with a biodegradability in series [1] of 67%.
In the case of `CCO[Si](CCCNCCC[Si](OCC)(OCC)OCC)(OCC)OCC` [DYNASYLAN bis-AMEO], the IC50 algae in the series with algae was 125 mg/L (≈ 294 µM). In the series on fish, the LC50 fish was above 200 mg/L. In addition, the EC50 daphnia with daphnia is above 200 mg/L.

(Values after patent US8596358B2, “Well treatment” (Statoil ASA, priority 2004, dated 2013).)
